# Measurements reported in patent publication US10597364B2, “Anthelmintic compounds, compositions and method of using thereof” (priority 2015, dated 2020).
# System: microfilaria of Dirofilaria immitis
# Experiment: Method C: microfilaria of Dirofilaria immitis motility screen
# Type: cell-based
# Details: 10 μM, 24 hours, read-out: inhibition of the microfilaria's motility
row,SMILES,inhibition at 10 µM [%]
1,CN(c1ccc([N+](=O)[O-])c(C(F)(F)F)c1)[C@H]1CC[C@H](Oc2ccnc(N3CCN(C(=O)NC(C)(C)C)CC3)c2)CC1 [Compound 132],≥ 90

# Same assay, conditions: 5 ppm, 24 hours, read-out: inhibition of the microfilaria's motility
row,SMILES,inhibition at 5 ppm [%]
1,"CCCNC(=O)N1CCN(c2cccc(O[C@H]3CC[C@H](Nc4ccc([N+](=O)[O-])c(C(F)(F)F)c4)CC3)n2)CC1 [Compound 127, N-propyl-4-(6-[[4-[[4-nitro-3-(trifluoromethyl)phenyl]amino]cyclohexyl]oxy]pyridin-2-yl)piperazine-1-carboxamide]",≥ 90

# Same assay, conditions: 24 h, read-out: inhibition of the microfilaria's motility
SMILES,inhibition at 5 ppm [%],inhibition at 1 ppm [%],inhibition at 10 µM [%]
"O=C(CC1CCCC1)N1CCN(c2ccnc(O[C@H]3CC[C@H](Nc4ccc([N+](=O)[O-])c(C(F)(F)F)c4)CC3)c2)CC1 [Compound 5, 2-cyclopentyl-1-(4-(2-(4-(4-nitro-3-(trifluoromethyl)phenylamino)cyclohexyloxy)pyridin-4-yl)piperazin-1-yl)ethanone]",≥ 90,–,–
O=[N+]([O-])c1ccc(N[C@H]2CC[C@H](Oc3ccnc(N4CCN(Cc5ccc(C(F)(F)F)cc5)CC4)c3)CC2)cc1C(F)(F)F [Compound 56],≥ 90,≥ 90,–
CC(C)(C)NC(=S)N1CCN(c2cncc(O[C@H]3CC[C@H](Nc4ccc([N+](=O)[O-])c(C(F)(F)F)c4)CC3)c2)CC1 [Compound 91],≥ 90,–,–
O=[N+]([O-])c1ccc(N[C@H]2CC[C@H](Oc3cncc(N4CCN(C(=S)Nc5ccc(F)cc5)CC4)c3)CC2)cc1C(F)(F)F [Compound 92],≥ 90,–,–
CC(C)(C)NC(=S)N1CCN(c2ccnc(O[C@H]3CC[C@H](Nc4ccc([N+](=O)[O-])c(C(F)(F)F)c4)CC3)c2)CC1 [Compound 93],≥ 90,–,–
CCCNC(=S)N1CCN(c2ccnc(O[C@H]3CC[C@H](Nc4ccc([N+](=O)[O-])c(C(F)(F)F)c4)CC3)c2)CC1 [Compound 99],≥ 90,≥ 90,–
O=[N+]([O-])c1ccc(N[C@H]2CC[C@H](Oc3ccnc(N4CCN(CC(F)(F)F)CC4)c3)CC2)cc1C(F)(F)F [Compound 108],≥ 90,–,–
CCOC(=O)N1CCN(c2cccc(O[C@H]3CC[C@H](Nc4ccc([N+](=O)[O-])c(C(F)(F)F)c4)CC3)n2)CC1 [Compound 110],≥ 90,–,–
O=C(Nc1ccc(F)cc1)N1CCN(c2ccnc(O[C@H]3CC[C@H](Nc4ccc([N+](=O)[O-])c(C(F)(F)F)c4)CC3)c2)CC1 [Compound 112],–,–,≥ 90
CCC(=O)N1CCN(c2cccc(O[C@H]3CC[C@H](Nc4ccc([N+](=O)[O-])c(C(F)(F)F)c4)CC3)n2)CC1 [Compound 115],≥ 90,–,–
CC(C)(C)NC(=S)N1CCN(c2cccc(O[C@H]3CC[C@H](Nc4ccc([N+](=O)[O-])c(C(F)(F)F)c4)CC3)n2)CC1 [Compound 116],≥ 90,–,–
CCCNC(=S)N1CCN(c2cncc(O[C@H]3CC[C@H](Nc4ccc([N+](=O)[O-])c(C(F)(F)F)c4)CC3)c2)CC1 [Compound 119],≥ 90,–,–
CCCNC(=S)N1CCN(c2cccc(O[C@H]3CC[C@H](Nc4ccc([N+](=O)[O-])c(C(F)(F)F)c4)CC3)n2)CC1 [Compound 120],≥ 90,–,–
CC(C)(C)OC(=O)N1CCN(c2ncccc2O[C@H]2CC[C@H](Nc3ccc([N+](=O)[O-])c(C(F)(F)F)c3)CC2)CC1 [Compound 121],≥ 90,–,–
CCNC(=S)N1CCN(c2cncc(O[C@H]3CC[C@H](Nc4ccc([N+](=O)[O-])c(C(F)(F)F)c4)CC3)c2)CC1 [Compound 124],≥ 90,–,–
CCNC(=S)N1CCN(c2cccc(O[C@H]3CC[C@H](Nc4ccc([N+](=O)[O-])c(C(F)(F)F)c4)CC3)n2)CC1 [Compound 125],≥ 90,–,–
CNC(=S)N1CCN(c2cncc(O[C@H]3CC[C@H](Nc4ccc([N+](=O)[O-])c(C(F)(F)F)c4)CC3)c2)CC1 [Compound 128],≥ 90,–,–
CNC(=S)N1CCN(c2ccnc(O[C@H]3CC[C@H](Nc4ccc([N+](=O)[O-])c(C(F)(F)F)c4)CC3)c2)CC1 [Compound 129],≥ 90,–,–
CNC(=S)N1CCN(c2cccc(O[C@H]3CC[C@H](Nc4ccc([N+](=O)[O-])c(C(F)(F)F)c4)CC3)n2)CC1 [Compound 130],≥ 90,–,–

SMILES,inhibition at 5 ppm [%],inhibition at 1 ppm [%],inhibition at 10 µM [%]
CCNC(=O)N1CCN(c2cccc(O[C@H]3CC[C@H](Nc4ccc([N+](=O)[O-])c(C(F)(F)F)c4)CC3)n2)CC1 [Compound 131],≥ 90,–,–
CCCCC(=O)N1CCN(c2cccc(O[C@H]3CC[C@H](Nc4ccc([N+](=O)[O-])c(C(F)(F)F)c4)CC3)n2)CC1 [Compound 136],–,–,≥ 90
O=C(Cc1cc(C(F)(F)F)cc(C(F)(F)F)c1)N1CCN(c2cc(O[C@H]3CC[C@H](Nc4ccc([N+](=O)[O-])c(C(F)(F)F)c4)CC3)ccn2)CC1 [Compound 137],–,–,≥ 90
O=C(Nc1ccc(C(F)(F)F)cc1)N1CCN(c2ccnc(O[C@H]3CC[C@H](Nc4ccc([N+](=O)[O-])c(C(F)(F)F)c4)CC3)c2)CC1 [Compound 138],–,–,≥ 90
O=C(Nc1ccc(C(F)(F)F)cc1)N1CCN(c2cccc(O[C@H]3CC[C@H](Nc4ccc([N+](=O)[O-])c(C(F)(F)F)c4)CC3)n2)CC1 [Compound 139],–,–,≥ 90
O=[N+]([O-])c1ccc(N[C@H]2CC[C@H](Oc3ccnc(N4CC5CN(c6ccc(C(F)(F)F)cn6)CC5C4)c3)CC2)cc1C(F)(F)F (some centres unmarked) [Compound 140],–,–,≥ 90
O=[N+]([O-])c1ccc(N[C@H]2CC[C@H](Oc3cccc(N4CCN(CC5CCCC5)CC4)n3)CC2)cc1C(F)(F)F [Compound 142],–,–,≥ 90
O=C(NC1CCCC1)N1CCN(c2cccc(O[C@H]3CC[C@H](Nc4ccc([N+](=O)[O-])c(C(F)(F)F)c4)CC3)n2)CC1 [Compound 147],–,–,≥ 90
CC(C)(C)NC(=O)N1CCN(c2cccc(O[C@H]3CC[C@H](Nc4ccc([N+](=O)[O-])c(C(F)(F)F)c4)CC3)n2)CC1 [Compound 150],–,–,≥ 90
CC(C)(C)OC(=O)N1CCN(c2cc(O[C@H]3CC[C@H](Nc4ccc(C#N)c(C(F)(F)F)c4)CC3)ccn2)CC1 [Compound 151],–,–,≥ 90
CNC(=O)N1CCN(c2cncc(O[C@H]3CC[C@H](Nc4ccc([N+](=O)[O-])c(C(F)(F)F)c4)CC3)c2)CC1 [Compound 154],–,–,≥ 90
CNC(=O)N1CCN(c2ccnc(O[C@H]3CC[C@H](Nc4ccc([N+](=O)[O-])c(C(F)(F)F)c4)CC3)c2)CC1 [Compound 155],–,–,≥ 90
CCCCN1CCN(c2cccc(O[C@H]3CC[C@H](Nc4ccc([N+](=O)[O-])c(C(F)(F)F)c4)CC3)n2)CC1 [Compound 157],–,–,≥ 90
CCCN1CCN(c2cccc(O[C@H]3CC[C@H](Nc4ccc([N+](=O)[O-])c(C(F)(F)F)c4)CC3)n2)CC1 [Compound 158],–,–,≥ 90
CCN1CCN(c2cc(O[C@H]3CC[C@H](Nc4ccc([N+](=O)[O-])c(C(F)(F)F)c4)CC3)ccn2)CC1 [Compound 160],–,–,≥ 90
CC(C)(C)OC(=O)N1CCN(c2cc(O[C@H]3CC[C@H](Nc4ccc(S(=O)(=O)C(F)(F)F)cc4)CC3)ccn2)CC1 [Compound 186],–,–,≥ 90
CCCOC(=O)N1CCN(c2cc(O[C@H]3CC[C@H](Nc4ccc(S(=O)(=O)C(F)(F)F)cc4)CC3)ccn2)CC1 [Compound 187],–,–,≥ 90
O=S(=O)(c1ccc(N[C@H]2CC[C@H](Oc3cncc(N4CCN(c5ccc(C(F)(F)F)cn5)CC4)c3)CC2)cc1)C(F)(F)F [Compound 195],–,–,≥ 90

# System: Haemonchus contortus
# Experiment: Method A: Haemonchus contortus L1 larval development/motility screen in microtitre plate
# Type: cell-based
# Details: 96 h, read-out: motility inhibition
row,SMILES,inhibition at 5 µM [%]
1,"O=C(CC1CCCC1)N1CCN(c2ccnc(O[C@H]3CC[C@H](Nc4ccc([N+](=O)[O-])c(C(F)(F)F)c4)CC3)c2)CC1 [Compound 5, 2-cyclopentyl-1-(4-(2-(4-(4-nitro-3-(trifluoromethyl)phenylamino)cyclohexyloxy)pyridin-4-yl)piperazin-1-yl)ethanone]",≥ 90
2,"CCCCC(=O)N1CCN(c2cncc(O[C@H]3CC[C@H](Nc4ccc([N+](=O)[O-])c(C(F)(F)F)c4)CC3)c2)CC1 [Compound 19, 1-[4-(5-[[4-[[4-nitro-3-(trifluoromethyl)phenyl]amino]cyclohexyl]oxy]pyridin-3-yl)piperazin-1-yl]pentan-1-one]",≥ 90
3,O=C(CC1CCCC1)N1CCN(c2cncc(O[C@H]3CC[C@H](Nc4ccc([N+](=O)[O-])c(C(F)(F)F)c4)CC3)c2)CC1 [Compound 20],≥ 90
4,CC(C)(C)OC(=O)N1CCN(c2cncc(O[C@H]3CC[C@H](Nc4ccc(C#N)c(C(F)(F)F)c4)CC3)c2)CC1 [Compound 50],≥ 90
5,O=[N+]([O-])c1ccc(N[C@H]2CC[C@H](Oc3cncc(N4CCN(Cc5nc6cc(C(F)(F)F)ccc6s5)CC4)c3)CC2)cc1C(F)(F)F [Compound 62],≥ 90
6,O=[N+]([O-])c1ccc(N[C@H]2CC[C@H](Oc3cncc(N4CCN(S(=O)(=O)C(F)(F)F)CC4)c3)CC2)cc1C(F)(F)F [Compound 63],≥ 90
7,CCCOC(=O)N1CCN(c2ccnc(O[C@H]3CC[C@H](Nc4ccc(C#N)c(C(F)(F)F)c4)CC3)c2)CC1 [Compound 74],≥ 90
8,CC(C)(C)CN1CCN(c2ccnc(O[C@H]3CC[C@H](Nc4ccc([N+](=O)[O-])c(C(F)(F)F)c4)CC3)c2)CC1 [Compound 84],≥ 90
9,O=[N+]([O-])c1ccc(N[C@H]2CC[C@H](Oc3cncc(N4CCN(C(=S)Nc5ccc(C(F)(F)F)cc5)CC4)c3)CC2)cc1C(F)(F)F [Compound 88],≥ 90
10,O=[N+]([O-])c1ccc(N[C@H]2CC[C@H](Oc3cncc(N4CCN(c5ccc6cc(C(F)(F)F)ccc6n5)CC4)c3)CC2)cc1C(F)(F)F [Compound 90],≥ 90
11,O=C(Nc1ccc(C(F)(F)F)cc1)N1CCN(c2cncc(O[C@H]3CC[C@H](Nc4ccc([N+](=O)[O-])c(C(F)(F)F)c4)CC3)c2)CC1 [Compound 94],≥ 90
12,O=C(CC1CCCC1)N1CCN(c2ccnc(O[C@H]3CC[C@H](Nc4ccc(S(=O)(=O)C(F)(F)F)cc4)CC3)c2)CC1 [Compound 163],≥ 90
13,CCCOC(=O)N1CCN(c2cc(O[C@H]3CC[C@H](Nc4ccc(C#N)c(C(F)(F)F)c4)CC3)ccn2)CC1 [Compound 176],≥ 90
14,N#Cc1ccc(N[C@H]2CC[C@H](Oc3cncc(N4CCN(C(=O)CC5CCCC5)CC4)c3)CC2)cc1C(F)(F)F [Compound 180],≥ 90
15,O=C(CC1CCCC1)N1CCN(c2cncc(O[C@H]3CC[C@H](Nc4ccc(S(=O)(=O)C(F)(F)F)cc4)CC3)c2)CC1 [Compound 193],≥ 90
